Test system: calf thymus (CT) DNA
Format: binding
Conditions: for ΔTm (° C.) after incubation at 37° C. for 0 h / ΔTm (° C.) after incubation at 37° C. for 18 h / ΔTm (° C.) after incubation at 37° C. for 36 h: [PBD]:[DNA] molar ratio 1:5, CT-DNA 100 μM, ligand 20 μM, 10 mM sodium phosphate + 1 mM EDTA, pH 7.00; for ΔTm (° C.) after incubation at 37° C. for 0 h: 0 h incubation at 37° C.; for ΔTm (° C.) after incubation at 37° C. for 18 h: 18 h incubation at 37° C.; for ΔTm (° C.) after incubation at 37° C. for 36 h: 36 h incubation at 37° C.
Description: The DNA binding affinity of the novel C2 di-fluoro PBD dimers (VIIa-c) was investigated by thermal denaturation studies using calf thymus (CT) DNA (Jones, G. B.; Davey, C. L.; Jenkins, T. C.; Kamal, A.; Kneale, G. G.; Neidle, S.; Webster, G. D.; Thurston, D. E. Anti-Cancer Drug Des. 1990, 5, 249. McConnaughie, A. W.; Jenkins, T. C. J. Med. Chem. 1995, 38, 3488). The studies for these compounds (VIIa-c) were carried out by DNA/ligand molar ratios of 5:1. The increase in the helix melting temperature. (ΔTm) for each compound was examined after 0, 18 and 36 h incubation at 37° C.

Row | Compound | ΔTm (° C.) after incubation at 37° C. for 0 h | ΔTm (° C.) after incubation at 37° C. for 18 h | ΔTm (° C.) after incubation at 37° C. for 36 h | ΔTm (increase in the helix melting temperature) (under identical experimental conditions, DNA/ligand molar ratio 5:1, incubation time not stated)
1 | 1,1′-{[(butane-1,4-diyl)]dioxy}bis[(11aS)-2,2-difluoro-7-methoxy-1,2,3,11a-tetrahydro-5H-pyrrolo[2,1-c][1,4]benzodiazepin-5-one [VIIb] | 4.2 °C | 23.4 °C | 24.7 °C | –
2 | 1,1′-{[(pentane-1,5-diyl)]dioxy}bis[(11aS)-2,2-difluoro-7-methoxy-1,2,3,11a-tetrahydro-5H-pyrrolo[2,1-c][1,4]benzodiazepin-5-one [VIIc] | 18.9 °C | 24.5 °C | 28.4 °C | –
3 | COc1cc2c(cc1O)N=CC1CCCN1C2=O (stereo not shown) [DC-81, reference compound] | 0.3 °C | 0.7 °C | 0.7 °C | 0.7 °C
4 | COc1ccc2c(c1)C(=O)N1CC(F)(F)C(OCCCOC3[C@@H]4C=Nc5ccc(OC)cc5C(=O)N4CC3(F)F)[C@@H]1C=N2 (stereo partly drawn) [VIIa, 1,1′-{[(propane-1,3-diyl)]dioxy}bis[(11aS)-2,2-difluoro-7-methoxy-1,2,3,11a-tetrahydro-5H-pyrrolo[2,1-c][1,4]benzodiazepin-5-one]] | 13.1 °C | 23.4 °C | 27.5 °C | –
